# Data taken from PubChem BioAssay AID192 (DTP/NCI, 2004).
# Several values for one entry are separate records, joined by “and”; a condition that tells them apart may be missing. Equal entries are not always repeated. Toxic doses and inconclusive results are not listed.
# Test system: BDF1 mice, B16 melanoma ip, median survival T/C
# Assay: NCI In Vivo Anticancer Drug Screen. Data for tumor model B16 Melanoma (intraperitoneal) in B6D2F1 (BDF1) mice
# Settings: endpoint: median survival time, higher = longer survival
# How it was run: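 In this screen, activity was judged from survival or tumor size in treated versus vehicle-treated tumor-bearing mice, reported as T/C.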
# [1] = dose: 25.0 mg/kg/injection, schedule: Q04DX003 (ip), vehicle: saline with Tween-80
# [2] = dose: 25.0 mg/kg/injection, schedule: Q01DX009 (ip), vehicle: Klucel (hydroxypropylcellulose) (HPC)
# [3] = dose: 50.0 mg/kg/injection, schedule: Q01DX009 (ip), vehicle: Klucel (hydroxypropylcellulose) (HPC)
# [4] = dose: 100.0 mg/kg/injection, schedule: Q01DX009 (ip), vehicle: Klucel (hydroxypropylcellulose) (HPC)
# [5] = dose: 200.0 mg/kg/injection, schedule: Q01DX009 (ip), vehicle: Klucel (hydroxypropylcellulose) (HPC)
# [6] = dose: 25.0 mg/kg/injection, schedule: Q01DX009 (ip), vehicle: saline with Tween-80
# [7] = dose: 100.0 mg/kg/injection, schedule: Q01DX009 (ip), vehicle: saline with Tween-80
# [8] = dose: 0.5 mg/kg/injection, schedule: Q01DX009 (ip), vehicle: saline with Tween-80
# [9] = dose: 2.0 mg/kg/injection, schedule: Q01DX009 (ip), vehicle: saline with Tween-80
# [10] = dose: 50.0 mg/kg/injection, schedule: Q01DX009 (ip), vehicle: saline
# [11] = dose: 100.0 mg/kg/injection, schedule: Q01DX009 (ip), vehicle: saline
# [12] = dose: 50.0 mg/kg/injection, schedule: Q01DX009 (ip), vehicle: saline with Tween-80
# [13] = dose: 25.0 mg/kg/injection, schedule: Q01DX009 (ip), vehicle: saline
compound,measurement,setting,value
COc1c(C)c2c(c(O)c1C/C=C(\C)CCC(=O)O)C(=O)OC2,T/C,"dose: 6.25 mg/kg/injection, schedule: Q01DX009 (ip), vehicle: distilled water + Tween-80",96 % of control
same,T/C,"dose: 12.5 mg/kg/injection, schedule: Q01DX009 (ip), vehicle: distilled water + Tween-80",95 % of control
same,T/C,"dose: 25.0 mg/kg/injection, schedule: Q01DX009 (ip), vehicle: distilled water + Tween-80",107 % of control
same,T/C,"dose: 50.0 mg/kg/injection, schedule: Q01DX009 (ip), vehicle: distilled water + Tween-80",94 % of control
same,T/C,"dose: 100.0 mg/kg/injection, schedule: Q01DX009 (ip), vehicle: distilled water + Tween-80",104 % of control
same,T/C,"dose: 200.0 mg/kg/injection, schedule: Q01DX009 (ip), vehicle: distilled water + Tween-80",104 % of control
CC[n+]1ccc(Nc2ccc(/C=C/c3ccc4cc(Nc5cc[n+](CC)cc5)ccc4[n+]3CC)cc2)cc1,T/C,"dose: 2.5 mg/kg/injection, schedule: Q01DX009 (ip), vehicle: saline",117 % of control
same,T/C,"dose: 5.0 mg/kg/injection, schedule: Q01DX009 (ip), vehicle: saline",109 % of control
same,T/C,"dose: 10.0 mg/kg/injection, schedule: Q01DX009 (ip), vehicle: saline",86 % of control
Cc1ccc(C(=O)C=C(C(F)(F)F)C(F)(F)F)cc1,T/C,"dose: 6.25 mg/kg/injection, schedule: Q04DX003 (ip), vehicle: saline with Tween-80",111 % of control
same,T/C,"dose: 12.5 mg/kg/injection, schedule: Q04DX003 (ip), vehicle: saline with Tween-80",100 % of control
same,T/C,[1],105 % of control
CC1(C)N=C(N)N=C(N)N1c1cccc(OCCOc2ccc([N+](=O)[O-])cc2)c1,T/C,[2],101 % of control
same,T/C,[3],102 % of control
same,T/C,[4],100 % of control
same,T/C,[5],102 % of control
CS(=O)(=O)c1cc(=O)[nH]c(=O)[nH]1,T/C,[6],95 % of control
same,T/C,[7],92 % of control
CC(=O)NC1=C(N2CC2)C(=O)C(NC(C)=O)=C(N2CC2)C1=O,T/C,"dose: 0.12 mg/kg/injection, schedule: Q01DX009 (ip), vehicle: saline with Tween-80",106 % of control and 112 % of control
same,T/C,"dose: 0.25 mg/kg/injection, schedule: Q01DX005 (ip), vehicle: saline with Tween-80",103 % of control and 109 % of control
same,T/C,"dose: 0.25 mg/kg/injection, schedule: Q01DX009 (ip), vehicle: saline with Tween-80",107 % of control and 112 % of control
same,T/C,"dose: 0.5 mg/kg/injection, schedule: Q01DX005 (ip), vehicle: saline with Tween-80",107 % of control
same,T/C,[8],124 % of control
same,T/C,"dose: 1.0 mg/kg/injection, schedule: Q01DX005 (ip), vehicle: saline with Tween-80",116 % of control and 121 % of control
same,T/C,[9],157 % of control
same,T/C,"dose: 7.0 micrograms/kg/injection, schedule: Q01DX009 (ip), vehicle: saline",102 % of control
same,T/C,"dose: 15.0 micrograms/kg/injection, schedule: Q01DX009 (ip), vehicle: saline",95 % of control
same,T/C,"dose: 31.0 micrograms/kg/injection, schedule: Q01DX009 (ip), vehicle: saline",92 % of control
same,T/C,"dose: 62.0 micrograms/kg/injection, schedule: Q01DX009 (ip), vehicle: saline",116 % of control
same,T/C,"dose: 125.0 micrograms/kg/injection, schedule: Q01DX009 (ip), vehicle: saline",95 % of control
N#CC(=C1C=CC(=NO)C=C1)c1ccccc1,T/C,"dose: 12.5 mg/kg/injection, schedule: Q01DX009 (ip), vehicle: Klucel (hydroxypropylcellulose) (HPC)",100 % of control
same,T/C,[3],112 % of control
same,T/C,[4],103 % of control
Cn1ccccc1=O,T/C,[10],124 % of control
same,T/C,[11],120 % of control
same,T/C,"dose: 200.0 mg/kg/injection, schedule: Q01DX009 (ip), vehicle: saline",117 % of control
C1CN1P1(N2CC2)=NP(N2CC2)(N2CC2)=NP(N2CC2)(N2CC2)=N1,T/C,"dose: 0.25 mg/kg/injection, schedule: Q02DX009 (ip), vehicle: saline with Tween-80",87 % of control
same,T/C,[8],108 % of control
same,T/C,"dose: 0.5 mg/kg/injection, schedule: Q02DX009 (ip), vehicle: saline with Tween-80",101 % of control
same,T/C,"dose: 1.0 mg/kg/injection, schedule: Q01DX009 (ip), vehicle: saline with Tween-80",124 % of control
same,T/C,"dose: 1.0 mg/kg/injection, schedule: Q02DX009 (ip), vehicle: saline with Tween-80",87 % of control and 94 % of control
same,T/C,[9],123 % of control
same,T/C,"dose: 2.0 mg/kg/injection, schedule: Q02DX009 (ip), vehicle: saline with Tween-80",99 % of control and 122 % of control
same,T/C,"dose: 8.0 mg/kg/injection, schedule: Q01DX009 (ip), vehicle: saline with Tween-80",170 % of control
same,T/C,"dose: 8.0 mg/kg/injection, schedule: Q02DX009 (ip), vehicle: saline with Tween-80",153 % of control
C/C=C/CNc1ccc(C)cc1,T/C,[6],102 % of control
same,T/C,[12],102 % of control
same,T/C,[7],92 % of control
CC(=O)ON=C1C=CC(=C(C#N)c2ccccc2)C=C1,T/C,[6],86 % of control
same,T/C,[12],86 % of control
same,T/C,[7],92 % of control
COc1cc2ccc3c(c2cc1OC)N(C)C(OC)c1cc2c(cc1-3)OCO2 (centres undefined),T/C,"dose: 10.0 mg/kg/injection, schedule: Q01DX009 (ip), vehicle: saline with Tween-80",119 % of control
O=C1NC(=O)C2C3C=CC(C3)C12 (centres undefined),T/C,[13],105 % of control
same,T/C,[10],105 % of control
same,T/C,[11],113 % of control
CCOC(=O)C(NC(C)=O)C(=O)OCC,T/C,"dose: 100.0 mg/kg/injection, schedule: Q04DX003 (ip), vehicle: Klucel (hydroxypropylcellulose) (HPC)",90 % of control
same,T/C,"dose: 200.0 mg/kg/injection, schedule: Q04DX003 (ip), vehicle: Klucel (hydroxypropylcellulose) (HPC)",102 % of control
same,T/C,"dose: 400.0 mg/kg/injection, schedule: Q04DX003 (ip), vehicle: Klucel (hydroxypropylcellulose) (HPC)",95 % of control
COC12C(COC(=O)NCCO)C3=C(C(=O)C(C)=C(N)C3=O)N1CC1NC12 (centres undefined),T/C,"dose: 1.56 mg/kg/injection, schedule: Q01DX009 (ip), vehicle: Klucel (hydroxypropylcellulose) (HPC)",98 % of control
same,T/C,"dose: 3.12 mg/kg/injection, schedule: Q01DX009 (ip), vehicle: Klucel (hydroxypropylcellulose) (HPC)",116 % of control and 120 % of control and 124 % of control
same,T/C,"dose: 6.25 mg/kg/injection, schedule: Q01DX009 (ip), vehicle: saline",119 % of control
same,T/C,[2],88 % of control and 180 % of control and 209 % of control
same,T/C,[13],94 % of control
CC(C)NC(=O)c1ccc(N/N=[N+](/C)[O-])cc1,T/C,[6],121 % of control
same,T/C,[12],107 % of control
same,T/C,[7],93 % of control and 111 % of control
C=C(C)/C([O-])=N/[N+](C)(C)CC(O)CCCCCCCCCCCC (centres undefined),T/C,"dose: 25.0 mg/kg/injection, schedule: Q01DX001 (ip), vehicle: saline",91 % of control
same,T/C,"dose: 50.0 mg/kg/injection, schedule: Q01DX001 (ip), vehicle: saline",95 % of control
Cc1ccc(NC(=O)COc2ccc(Cl)cc2Cl)c([N+](=O)[O-])c1,T/C,"dose: 25.0 mg/kg/injection, schedule: Q01DX009 (ip), vehicle: carboxymethylcellulose (CMC)",100 % of control
same,T/C,"dose: 50.0 mg/kg/injection, schedule: Q01DX009 (ip), vehicle: carboxymethylcellulose (CMC)",100 % of control
same,T/C,[4],88 % of control
same,T/C,"dose: 100.0 mg/kg/injection, schedule: Q01DX009 (ip), vehicle: carboxymethylcellulose (CMC)",100 % of control
COC(=O)C1C(O)C(C)C(O)C(C)(O)C=C(C)C2=C3C(=C(C)C(=O)c4c(O)c(c(C)c(OC(C)=O)c43)NC(=O)C(C)=C/C=C\C(C)(O)C(O)C(C)C1O)OCO2 (centres undefined),T/C,[3],94 % of control
same,T/C,[4],94 % of control
same,T/C,[5],91 % of control
CCN(CC)CCCNC(=S)NC(C)(C)CC(C)=O,T/C,"dose: 75.0 mg/kg/injection, schedule: Q04DX003 (ip), vehicle: Klucel (hydroxypropylcellulose) (HPC)",95 % of control
same,T/C,"dose: 150.0 mg/kg/injection, schedule: Q04DX003 (ip), vehicle: Klucel (hydroxypropylcellulose) (HPC)",92 % of control
same,T/C,"dose: 300.0 mg/kg/injection, schedule: Q04DX003 (ip), vehicle: Klucel (hydroxypropylcellulose) (HPC)",95 % of control
CCCC/C=C/CCCCCCCC(=O)OCCCCCCCCCCCCCCCC,T/C,"dose: 12.5 mg/kg/injection, schedule: Q01DX009 (ip), vehicle: saline with Tween-80",100 % of control
same,T/C,[6],101 % of control
same,T/C,[12],94 % of control
same,T/C,[7],94 % of control
C/C(=C\c1ccccc1)[N+](=O)[O-],T/C,[6],111 % of control
same,T/C,[1],110 % of control
same,T/C,[12],105 % of control
same,T/C,"dose: 50.0 mg/kg/injection, schedule: Q04DX003 (ip), vehicle: saline with Tween-80",110 % of control
CCN(CC)C(C(=O)Nc1ccccc1)C(=O)Nc1ccccc1,T/C,[7],100 % of control
same,T/C,"dose: 200.0 mg/kg/injection, schedule: Q01DX009 (ip), vehicle: saline with Tween-80",90 % of control
same,T/C,"dose: 400.0 mg/kg/injection, schedule: Q01DX009 (ip), vehicle: saline with Tween-80",95 % of control
